From patent US9556152B2, “Heterocyclic amides as kinase inhibitors” (GlaxoSmithKline Intellectual Property Development Limited, priority 2013, dated 2017)
Read-outs that look alike come from different tables or passages of the source.

How the values were obtained:
[1] = tested on: mouse TNF induced temperature loss in mice; assay: TNF (alone)-driven systemic inflammatory response syndrome model (long modality), temperature loss; assay type: in vivo; details: oral pre-dose 50 mg/kg 15 minutes before i.v. mouse TNF
Protocol: (§1) TNF (or TNF/zVAD) induced manifestations include temperature loss, the production of numerous cytokines (including IL-6, IL-1b, MIP1β and MIP2) in the periphery, liver and intestinal inflammation and an increase of markers of cellular (LDH and CK) and liver damage (AST and ALT) in the serum.
In addition to the TNF/zVAD model, each compound is also tested in a TNF alone model. For the TNF (alone) version of the model, mice (7 mice per group) were orally pre-dosed with vehicle or test compound at 50 mg/kg 15 minutes before i.v. administration of mouse TNF (30 m/mouse). […] All data are shown as means±standard error of the mean.

[2] = tested on: mouse TNF and zVAD induced temperature loss in mice; assay: TNF/zVAD-driven systemic inflammatory response syndrome model (short modality), temperature loss; assay type: in vivo
Protocol: as §1
Each test compound is run through the TNF/zVAD and TNF (alone) versions of the model. For example, mice (7 mice per group) were orally pre-dosed with vehicle or test compound at 50 mg/kg 15 minutes before i.v. administration of mouse TNF (30 m/mouse) and zVAD (0.4 mg/mouse) simultaneously. Temperature loss in the mice was measured by rectal probe. The study was terminated when the control group lost 7 degrees, per our IACUC protocol. […] All data are shown as means±standard error of the mean.

[3] = biological target: T1, RIP1 kinase (GST-RipK1 (1-375)) (Homo sapiens, UniProt Q13546)
T1 sequence (Q13546 1-375): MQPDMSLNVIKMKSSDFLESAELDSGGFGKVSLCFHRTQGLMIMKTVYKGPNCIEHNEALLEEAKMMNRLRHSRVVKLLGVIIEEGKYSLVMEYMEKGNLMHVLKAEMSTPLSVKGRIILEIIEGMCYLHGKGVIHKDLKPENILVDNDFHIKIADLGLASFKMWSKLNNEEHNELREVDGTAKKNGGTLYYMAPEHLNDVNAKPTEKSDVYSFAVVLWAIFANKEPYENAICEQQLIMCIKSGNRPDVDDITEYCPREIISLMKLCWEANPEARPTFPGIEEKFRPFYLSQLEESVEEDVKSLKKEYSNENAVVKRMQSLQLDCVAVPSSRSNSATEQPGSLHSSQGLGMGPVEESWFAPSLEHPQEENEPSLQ
Protocol: A fluorescent polarization based binding assay was developed to quantitate interaction of novel test compounds at the ATP binding pocket of RIP1, by competition with a fluorescently labeled ATP competitive ligand. […] Following the incubation, 5 ul of the fluorescent labeled ligand solution, was added to each reaction, at twice the final assay concentration, and incubated at room temperature for at least 15 minutes. Finally, samples were read on an instrument capable of measuring fluorescent polarization. Test compound inhibition was expressed as percent (%) inhibition of internal assay controls. For concentration response experiments, normalized data were fit and pIC50s determined using conventional techniques.

[4] = oral pre-dose 30 mg/kg 15 minutes before i.v. mouse TNF and zVAD
[5] = oral pre-dose 10 mg/kg 15 minutes before i.v. mouse TNF and zVAD
[6] = mean pIC50, FP competition binding, GST-RipK1 (1-375) 10 nM, fluorescent ligand 5 nM, mean of minimum 2 experiments
[7] = average pIC50 after continued testing, FP competition binding, updated average after continued testing

| SMILES | % Inhibition [2, 4] [%] | IC50 [3, 6] [nM] | also measured |
| --- | --- | --- | --- |
| CN1C(=O)[C@@H](NC(=O)c2cc(Cc3ccccc3)n[nH]2)COc2ccc(Br)cc21 [Example 20, (S)-3-benzyl-N-(7-bromo-5-methyl-4-oxo-2,3,4,5-tetrahydrobenzo[b] [1,4]oxazepin-3-yl)-1H-pyrazole-5-carboxamide] | 52 | – | % Inhibition [1]: 51% |
| CN1C(=O)[C@@H](NC(=O)c2ncn(Cc3ccccc3)n2)COc2ccccc21 [Example 45, (S)-1-benzyl-N-(5-methyl-4-oxo-2,3,4,5-tetrahydrobenzo[b] [1,4]oxazepin-3-yl)-1H-1,2,4-triazole-3-carboxamide] | – | – | % Inhibition [2, 5]: 91% |
| Cc1ccc(Cc2cc(C(=O)N[C@H]3CNc4ccccc4N(C)C3=O)n[nH]2)cc1 [Example 64, (S)-N-(1-methyl-2-oxo-2,3,4,5-tetrahydro-1H-benzo[b][1,4]diazepin-3-yl)-5-(4-methylbenzyl)-1H-pyrazole-3-carboxamide] | 62 | – | – |
| CN1C(=O)[C@@H](NC(=O)c2nnc(Cc3ccccc3)[nH]2)COc2cccc(F)c21 [Example 91, (S)-5-benzyl-N-(6-fluoro-5-methyl-4-oxo-2,3,4,5-tetrahydrobenzo[b] [1,4]oxazepin-3-yl)-4H-1,2,4-triazole-3-carboxamide] | – | ~25.1 | – |
| CN1C(=O)[C@@H](NC(=O)c2cc(Oc3ccccc3)ccn2)COc2ccccc21 [Example 97, (S)-N-(5-methyl-4-oxo-2,3,4,5-tetrahydrobenzo[b] [1,4]oxazepin-3-yl)-4-phenoxypicolinamide] | 70 | – | – |
| Cc1cc(F)c2c(c1)OC[C@H](NC(=O)c1nnc(CC3CCCC3)[nH]1)C(=O)N2 [Example 102, (S)-5-(cyclopentylmethyl)-N-(6-fluoro-8-methyl-4-oxo-2,3,4,5-tetrahydrobenzo[b] [1,4]oxazepin-3-yl)-4H-1,2,4-triazole-3-carboxamide] | – | ~15.8 | – |
| CN1C(=O)[C@@H](NC(=O)c2cc(Cc3ccccc3)n[nH]2)COc2ccccc21 [Example 108, (S)-3-benzyl-N-(5-methyl-4-oxo-2,3,4,5-tetrahydrobenzo[b] [1,4]oxazepin-3-yl)-1H-pyrazole-5-carboxamide] | 56 | – | – |
| CN1C(=O)[C@@H](NC(=O)c2cc(Cc3ccc(F)cc3)n[nH]2)COc2ccccc21 [Example 125, (S)-3-(4-fluorobenzyl)-N-(5-methyl-4-oxo-2,3,4,5-tetrahydrobenzo[b] [1,4]oxazepin-3-yl)-1H-pyrazole-5-carboxamide] | 25 | – | – |
| O=C(N[C@H]1CCc2cc(Cl)ccc2NC1=O)c1nnc(Cc2ccccc2)[nH]1 [Example 161, (S)-5-benzyl-N-(7-chloro-2-oxo-2,3,4,5-tetrahydro-1H-benzo[b]azepin-3-yl)-4H-1,2,4-triazole-3-carboxamide] | – | ~12.6 | % Inhibition [1]: 82%; IC50 [3, 7]: 20 nM; % Inhibition ([2]; oral pre-dose 50 mg/kg 15 minutes before i.v. mouse TNF and zVAD): 85% |
| O=C(N[C@H]1CCc2cc(Br)ccc2NC1=O)c1nnc(Cc2ccccc2)[nH]1 [Example 163, (S)-5-benzyl-N-(7-bromo-2-oxo-2,3,4,5-tetrahydro-1H-benzo[b]azepin-3-yl)-4H-1,2,4-triazole-3-carboxamide] | – | ~12.6 | % Inhibition [2, 5]: 73% |
| Cc1nnc(-c2ccc3c(c2)N(C)C(=O)[C@@H](NC(=O)c2nnc(Cc4ccccc4)[nH]2)CO3)o1 [Example 169, (S)-5-benzyl-N-(5-methyl-7-(5-methyl-1,3,4-oxadiazol-2-yl)-4-oxo-2,3,4,5-tetrahydrobenzo[b][1, 4]oxazepin-3-yl)-4H-1,2,4-triazole-3-carboxamide] | – | ~63.1 | IC50 [3, 7]: 50.1 nM |
| Cc1ccc(Cc2cc(C(=O)N[C@H]3COc4ccccc4N(C)C3=O)[nH]n2)cc1 [Example 176, (S)-N-(5-methyl-4-oxo-2,3,4,5-tetrahydrobenzo[b] [1,4]oxazepin-3-yl)-5-(4-methylbenzyl)-1H-pyrazole-3-carboxamide] | 34 | – | – |
| CN1C(=O)[C@@H](NC(=O)c2cc(Cc3ccccc3)[nH]n2)CNc2ccccc21 [Example 190, (S)-5-benzyl-N-(1-methyl-2-oxo-2,3,4,5-tetrahydro-1H-benzo[b] [1,4]diazepin-3-yl)-1H-pyrazole-3-carboxamide] | 85 | – | % Inhibition [1]: 56% |
| CN1C(=O)[C@@H](NC(=O)c2cc(Cc3ccccc3)on2)CNc2ccccc21 [Example 235, (S)-5-benzyl-N-(1-methyl-2-oxo-2,3,4,5-tetrahydro-1H-benzo[b] [1,4]diazepin-3-yl)isoxazole-3-carboxamide] | 58 | – | % Inhibition [1]: 73% |
| O=C(N[C@H]1CCc2ccccc2NC1=O)c1cc(Cc2ccccc2)on1 [Example 236, (S)-5-benzyl-N-(2-oxo-2,3,4,5-tetrahydro-1H-benzo[b]azepin-3-yl)isoxazole-3-carboxamide] | 23 | – | – |
